Reference: article PMC10373199 (ACS Omega, 2023)
Values after ≈ are worked out from the molar mass of the structure shown. Read-outs that look alike come from different tables or passages of the source. Marks after values point to notes of the source that are not given here.

Legend:
in vitro = settings: human
EBOV = format: cell-based, Ebola virus; set-up: unit not given beside the values
SNB-19 = test: NCI five-dose screen, SNB-19; format: cell-based; settings: Homo sapiens
UACC-62 = test: NCI five-dose screen, UACC-62; format: cell-based; settings: Homo sapiens
MCF-7 = test: NCI one-dose screen, MCF-7; format: cell-based; settings: Homo sapiens, MCF7, read-out: growth inhibition on MCF-7 (%), 10 μM
OVCAR-5 = test: NCI five-dose screen, OVCAR-5; format: cell-based; settings: Homo sapiens
SF-268 = test: NCI five-dose screen, SF-268; format: cell-based; settings: Homo sapiens
HCT-116 = test: NCI five-dose screen, HCT-116; format: cell-based; settings: Homo sapiens
RPMI-8226 = test: NCI five-dose screen, RPMI-8226; format: cell-based; settings: Homo sapiens
T-47D = test: NCI five-dose screen, T-47D; format: cell-based; settings: Homo sapiens, T47D
UO-31 = test: NCI five-dose screen, UO-31; format: cell-based; settings: Homo sapiens
OVCAR-8 = test: NCI five-dose screen, OVCAR-8; format: cell-based; settings: Homo sapiens
MCF7 = test: NCI five-dose screen, MCF7; format: cell-based; settings: Homo sapiens
SK-OV-3 = test: NCI five-dose screen, SK-OV-3; format: cell-based; settings: Homo sapiens
KM12 = test: NCI five-dose screen, KM12; format: cell-based; settings: Homo sapiens
60 different cell lines = test: NCI five-dose screen, mean/median over 60 cell lines; format: cell-based; settings: Homo sapiens
A498 = test: NCI five-dose screen, A498; format: cell-based; settings: Homo sapiens
LOX IMVI = test: NCI five-dose screen, LOX IMVI; format: cell-based; settings: Homo sapiens
IGROV1 = test: NCI five-dose screen, IGROV1; format: cell-based; settings: Homo sapiens, IGROV-1
SK-MEL-2 = test: NCI five-dose screen, SK-MEL-2; format: cell-based; settings: Homo sapiens
SR = test: NCI five-dose screen, SR; format: cell-based; settings: Homo sapiens
HT29 = test: NCI five-dose screen, HT29; format: cell-based; settings: Homo sapiens, HT-29
U251 = test: NCI five-dose screen, U251; format: cell-based; settings: Homo sapiens, U-251
CCRF-CEM = test: NCI five-dose screen, CCRF-CEM; format: cell-based; settings: Homo sapiens
MALME-3M = test: NCI five-dose screen, MALME-3M; format: cell-based; settings: Homo sapiens
NCI-H23 = test: NCI five-dose screen, NCI-H23; format: cell-based; settings: Homo sapiens
CAKI-1 = test: NCI five-dose screen, CAKI-1; format: cell-based; settings: Homo sapiens
COLO 205 = test: NCI five-dose screen, COLO 205; format: cell-based; settings: Homo sapiens
PC-3 = test: NCI five-dose screen, PC-3; format: cell-based; settings: Homo sapiens
MDA-MB-231/ATCC = test: NCI five-dose screen, MDA-MB-231/ATCC; format: cell-based; settings: Homo sapiens
NCI/ADR-RES = test: NCI five-dose screen, NCI/ADR-RES; format: cell-based; settings: Homo sapiens
M14 = test: NCI five-dose screen, M14; format: cell-based; settings: Homo sapiens
SN12C = test: NCI five-dose screen, SN12C; format: cell-based; settings: Homo sapiens
SW-620 = test: NCI five-dose screen, SW-620; format: cell-based; settings: Homo sapiens
SK-MEL-5 = test: NCI five-dose screen, SK-MEL-5; format: cell-based; settings: Homo sapiens
60 NCI tumor cell lines = test: NCI one-dose screen, mean over 60 tumor cell lines; format: cell-based; settings: Homo sapiens, read-out: mean growth inhibition (%)
UACC-257 = test: NCI five-dose screen, UACC-257; format: cell-based; settings: Homo sapiens
OVCAR-4 = test: NCI five-dose screen, OVCAR-4; format: cell-based; settings: Homo sapiens
SK-MEL-28 = test: NCI five-dose screen, SK-MEL-28; format: cell-based; settings: Homo sapiens
786–0 = test: NCI five-dose screen, 786–0; format: cell-based; settings: Homo sapiens
DU-145 = test: NCI five-dose screen, DU-145; format: cell-based; settings: Homo sapiens
HL-60 (TB) = test: NCI five-dose screen, HL-60; format: cell-based; settings: Homo sapiens
OVCAR-3 = test: NCI five-dose screen, OVCAR-3; format: cell-based; settings: Homo sapiens
NCI-H322M = test: NCI five-dose screen, NCI-H322M; format: cell-based; settings: Homo sapiens
MOLT-4 = test: NCI five-dose screen, MOLT-4; format: cell-based; settings: Homo sapiens
EKVX = test: NCI five-dose screen, EKVX; format: cell-based; settings: Homo sapiens
HCT-15 = test: NCI five-dose screen, HCT-15; format: cell-based; settings: Homo sapiens
TK-10 = test: NCI five-dose screen, TK-10; format: cell-based; settings: Homo sapiens
Ishikawa cells = test: AlkP activity in Ishikawa cells; format: cell-based, human; settings: 72 h, DMSO set to 1
NCI-H226 = test: NCI five-dose screen, NCI-H226; format: cell-based; settings: Homo sapiens
MDA-MB-435 = test: NCI five-dose screen, MDA-MB-435; format: cell-based; settings: Homo sapiens
MDA-MB-468 = test: NCI five-dose screen, MDA-MB-468; format: cell-based; settings: Homo sapiens
SF-295 = test: NCI five-dose screen, SF-295; format: cell-based; settings: Homo sapiens
SF-539 = test: NCI five-dose screen, SF-539; format: cell-based; settings: Homo sapiens
SNB-75 = test: NCI five-dose screen, SNB-75; format: cell-based; settings: Homo sapiens
BT-549 = test: NCI five-dose screen, BT-549; format: cell-based; settings: Homo sapiens
HS 578T = test: NCI five-dose screen, HS 578T; format: cell-based; settings: Homo sapiens
RXF 393 = test: NCI five-dose screen, RXF 393; format: cell-based; settings: Homo sapiens
ACHN = test: NCI five-dose screen, ACHN; format: cell-based; settings: Homo sapiens
K-562 = test: NCI five-dose screen, K-562; format: cell-based; settings: Homo sapiens, K562
NCI-H460 = test: NCI five-dose screen, NCI-H460; format: cell-based; settings: Homo sapiens
NCI-H522 = test: NCI five-dose screen, NCI-H522; format: cell-based; settings: Homo sapiens
HOP-92 = test: NCI five-dose screen, HOP-92; format: cell-based; settings: Homo sapiens
A549/ATCC = test: NCI five-dose screen, A549/ATCC; format: cell-based; settings: Homo sapiens
HCC-2998 = test: NCI five-dose screen, HCC-2998; format: cell-based; settings: Homo sapiens
HOP-62 = test: NCI five-dose screen, HOP-62; format: cell-based; settings: Homo sapiens
influenza A virus H1N1 = test: Influenza A virus H1N1 screening, visual CPE inhibition; format: cell-based, influenza A virus H1N1 (California/07/2009)
ovariectomized rats = test: Uterotrophic assay; format: in vivo, rat; settings: 10 μg/kg BW/day s.c. for 3 days

NC(=O)c1nc(F)c[nH]c1=O [favipiravir]
CC50 (in vitro): > 1000 µg/mL | SI90 (EBOV): >14

CC/C(=C(\c1ccccc1)c1ccc(OCCN(C)C)cc1)c1ccccc1 [TAM, Tamoxifen]
GI50 (SNB-19): 6.31 µM | GI50 (UACC-62): 6.31 µM | inhibition at 10 µM (MCF-7): ≥ 100% | GI50 (OVCAR-5): 6.31 µM | GI50 (SF-268): 6.31 µM | GI50 (HCT-116): 3.98 µM | GI50 (RPMI-8226): 2.51 µM | GI50 (T-47D): 2.51 µM | GI50 (UO-31): 6.31 µM | GI50 (OVCAR-8): 7.94 µM | GI50 (MCF7): 1.58 µM | GI50 (SK-OV-3): 10 µM | GI50 (KM12): 3.16 µM | GI50 (60 different cell lines; read-out: GI50, mean): 4.41 µM | GI50 (60 different cell lines; read-out: GI50, median): 3.98 µM | GI50 (A498): 6.31 µM | GI50 (LOX IMVI): 2.51 µM | GI50 (IGROV1): 5.01 µM | GI50 (SK-MEL-2): 5.01 µM | GI50 (SR): 1.26 µM | GI50 (HT29): 2.51 µM | GI50 (U251): 3.16 µM | GI50 (CCRF-CEM): 3.16 µM | GI50 (MALME-3M): 3.16 µM | GI50 (NCI-H23): 5.01 µM | GI50 (CAKI-1): 3.98 µM | GI50 (COLO 205): 2.15 µM | GI50 (PC-3): 3.16 µM | GI50 (MDA-MB-231/ATCC): 6.31 µM | GI50 (NCI/ADR-RES): 5.01 µM | GI50 (M14): 2.51 µM | GI50 (SN12C): 3.98 µM | GI50 (SW-620): 3.16 µM | GI50 (SK-MEL-5): 2.51 µM | inhibition at 10 µM (60 NCI tumor cell lines): ≥ 100% | GI50 (UACC-257): 3.16 µM | GI50 (OVCAR-4): 6.31 µM | GI50 (SK-MEL-28): 3.98 µM | GI50 (786–0): 3.98 µM | GI50 (DU-145): 6.31 µM | GI50 (HL-60 (TB)): 2.51 µM | GI50 (OVCAR-3): 3.98 µM | GI50 (NCI-H322M): 7.94 µM | GI50 (MOLT-4): 2.51 µM | GI50 (EKVX): 6.31 µM | GI50 (HCT-15): 3.16 µM | GI50 (TK-10): 3.98 µM | AlkP activity (Ishikawa cells; 1 μM): 1.60 ± 0.55 | AlkP activity (Ishikawa cells; 10 μM): 1.02 ± 0.37 | GI50 (NCI-H226): 10 µM | GI50 (MDA-MB-435): 3.16 µM | GI50 (MDA-MB-468): 1.96 µM | GI50 (SF-295): 1.96 µM | GI50 (SF-539): 5.01 µM | GI50 (SNB-75): 5.01 µM | GI50 (BT-549): 6.31 µM | GI50 (HS 578T): 3.98 µM | GI50 (RXF 393): 2.51 µM | GI50 (ACHN): 6.31 µM | GI50 (K-562): 1.99 µM | GI50 (NCI-H460): 3.16 µM | GI50 (NCI-H522): 6.31 µM | GI50 (HOP-92): 2.52 µM | GI50 (A549/ATCC): 3.98 µM | GI50 (HCC-2998): 3.16 µM | GI50 (HOP-62): 10 µM

CC/C(=C(\c1ccc(O)cc1)c1ccc(OCCN(C)C)cc1)c1ccccc1 [Compound 4-OH-TAM, 4-hydroxytamoxifen]
AlkP activity (Ishikawa cells; 1 μM): 1.73 ± 0.46 | AlkP activity (Ishikawa cells; 10 μM): 0.60 ± 0.20

NC(=O)c1ncn([C@@H]2O[C@H](CO)[C@@H](O)[C@H]2O)n1 [ribavirin]
EC50 (influenza A virus H1N1; Influenza A virus, H1N1, MDCK, read-out: EC50, visual CPE): 1 µg/mL (≈ 4.09 µM) | SI50 (CC50/EC50) (influenza A virus H1N1; visual CPE): >320 µg/mL

C[C@]12CC[C@@H]3c4ccc(O)cc4CC[C@H]3[C@@H]1CC[C@@H]2O [Compound E2, 17β-estradiol]
relative UWW, mean ± SD (ovariectomized rats): 3.85 ± 0.71 g/kg BW | AlkP activity (Ishikawa cells; 10 nM): 6.86 ± 0.69 ^a
